Experimental data from ChEMBL document CHEMBL3751695, “Cationic lipid-conjugated hydrocortisone as selective antitumor agent” (Eur J Med Chem, 2016).
Activity calls are given as the source filed them. No cut-off for these calls is given here.

What was measured:
[1] = Antitumor activity in mouse B16F10 cells xenografted in C57BL/J mouse assessed as increase in ratio of Bax/Bcl2 in tumor lysates at 10 mg/kg, ip by western blot analysis (reference value: 0.4); assay type: functional, Neoplasm, B16-F10
B16-F10 [2] = assay: Induction of apoptosis in mouse B16F10 cells assessed as increased Bax expression at 10 uM after 36 hrs by western blot analysis; assay type: functional, cell-based
[3] = Induction of apoptosis in mouse NIH/3T3 cells assessed as early apoptotic cells at 20 uM after 24 hrs by annexin-V-FITC/propidium iodide staining based flow cytometry (reference value: 0.43 %); assay type: cell-based; conditions: nih3t3, 24 h
B16-F10 [4] = assay: Antitumor activity in mouse B16F10 cells xenografted in C57BL/J mouse assessed as induction of apoptosis in tumor vasculature at 10 mg/kg, ip by TUNEL assay; assay type: functional, organism-based
B16-F10 [5] = assay: Induction of apoptosis in mouse B16F10 cells assessed as increased Bax expression at 20 uM after 36 hrs by western blot analysis; assay type: functional, cell-based
B16-F10 [6] = assay: Antitumor activity in mouse B16F10 cells xenografted in C57BL/J mouse assessed as increase of apoptotic protein cleaved caspase 7 level in tumor lysates at 10 mg/kg, ip by western blot analysis; assay type: functional, organism-based; conditions: Neoplasm, Lysate
A549 [7] = assay: Induction of apoptosis in human A549 cells assessed as late apoptotic cells at 20 uM after 24 hrs by annexin-V-FITC/propidium iodide staining based flow cytometry (reference value: 7.40 %); assay type: functional
B16-F10 [8] = assay: Antitumor activity in mouse B16F10 cells xenografted in C57BL/J mouse assessed as increase of apoptotic protein p53 level in tumor lysates at 10 mg/kg, ip by western blot analysis; assay type: functional, organism-based; conditions: Neoplasm, Lysate
[9] = Induction of apoptosis in mouse NIH/3T3 cells assessed as necrotic cells at 20 uM after 24 hrs by annexin-V-FITC/propidium iodide staining based flow cytometry (reference value: 0.24 %); assay type: cell-based; conditions: nih3t3, 24 h
RAW264.7 [10] = assay: Induction of apoptosis in mouse RAW264.7 cells assessed as early apoptotic cells at 20 uM after 24 hrs by annexin-V-FITC/propidium iodide staining based flow cytometry (reference value: 3.44 %); assay type: cell-based; conditions: raw264.7, 24 h
B16-F10 [11] = assay: Induction of apoptosis in mouse B16F10 cells assessed as increase in cleaved caspase 3 level at 10 uM after 36 hrs by western blot analysis; assay type: functional, cell-based
MDA-MB-231 = assay: Induction of apoptosis in human MDA-MB-231 cells assessed as viable cells at 20 uM after 24 hrs by annexin-V-FITC/propidium iodide staining based flow cytometry (reference value: 90.77 %); assay type: functional; conditions: MDA-MB-231, 24 h, read-out: Activity
B16-F10 [12] = assay: Effect on Bcl-2 expression in mouse B16F10 cells at 10 and 20 uM after 36 hrs by western blot analysis; assay type: functional, cell-based
RAW264.7 [13] = assay: Induction of apoptosis in mouse RAW264.7 cells assessed as late apoptotic cells at 20 uM after 24 hrs by annexin-V-FITC/propidium iodide staining based flow cytometry (reference value: 5.64 %); assay type: cell-based; conditions: raw264.7, 24 h
A549 [14] = assay: Induction of apoptosis in human A549 cells assessed as early apoptotic cells at 20 uM after 24 hrs by annexin-V-FITC/propidium iodide staining based flow cytometry (reference value: 1.41 %); assay type: functional
[15] = Cytotoxicity against mouse B16F10 cells at 10 and 20 uM after 72 hrs by MTT assay; assay type: functional, B16-F10
RAW264.7 [16] = assay: Cytotoxicity against mouse RAW264.7 cells after 72 hrs by MTT assay; assay type: cell-based; conditions: RAW264.7, 72 h
B16-F10 [17] = assay: Induction of apoptosis in mouse B16F10 cells assessed as increase in cytochrome C level at 10 uM after 36 hrs by western blot analysis; assay type: functional, cell-based
MCF7 = assay: Cytotoxicity against human MCF7 cells after 72 hrs by MTT assay; assay type: functional, cell-based; conditions: MCF7, 72 h
A549 [18] = assay: Cytotoxicity against human A549 cells at 5 and 10 uM after 72 hrs cells pretreated with 50 uM of RU486 for 4 hrs by MTT assay; assay type: functional, cell-based
RAW264.7 [19] = assay: Induction of apoptosis in mouse RAW264.7 cells assessed as necrotic cells at 20 uM after 24 hrs by annexin-V-FITC/propidium iodide staining based flow cytometry (reference value: 1.81%); assay type: cell-based; conditions: raw264.7, 24 h
A549 [20] = assay: Induction of apoptosis in human A549 cells assessed as viable cells at 20 uM after 24 hrs by annexin-V-FITC/propidium iodide staining based flow cytometry (reference value: 87.96 %); assay type: functional; conditions: A549, 24 h, read-out: Activity
B16-F10 [21] = assay: Antitumor activity in mouse B16F10 cells xenografted in C57BL/J mouse assessed as increase of apoptotic protein cleaved caspase 9 level in tumor lysates at 10 mg/kg, ip by western blot analysis; assay type: functional, organism-based; conditions: Neoplasm, Lysate
B16-F10 [22] = assay: Induction of apoptosis in mouse B16F10 cells assessed as increase in cytochrome C level at 20 uM after 36 hrs by western blot analysis; assay type: functional, cell-based
[23] = Induction of apoptosis in mouse RAW264.7 cells assessed as viable cells at 20 uM after 24 hrs by annexin-V-FITC/propidium iodide staining based flow cytometry (reference value: 89.11 %); assay type: cell-based; conditions: read-out: Activity
B16-F10 [24] = assay: Induction of apoptosis in mouse B16F10 cells assessed as increase in cleaved caspase 3 level at 20 uM after 36 hrs by western blot analysis; assay type: functional, cell-based
B16-F10 [25] = assay: Induction of apoptosis in mouse B16F10 cells assessed as increase in p53 expression at 20 uM after 36 hrs by […]; assay type: functional, cell-based
B16-F10 [26] = assay: Antitumor activity in mouse B16F10 cells xenografted in C57BL/J mouse assessed as decrease in VEGFR2 expression in tumor at 10 mg/kg, ip by immunohistochemical analysis; assay type: functional, organism-based
A549 [27] = assay: Cytotoxicity against human A549 cells after 72 hrs by MTT assay; assay type: functional, cell-based; conditions: A549, 72 h
B16-F10 [28] = assay: Induction of apoptosis in mouse B16F10 cells assessed as necrotic cells at 20 uM after 24 hrs by annexin-V-FITC/propidium iodide staining based flow cytometry (reference value: 1.41 %); assay type: functional
B16-F10 [29] = assay: Induction of apoptosis in mouse B16F10 cells assessed as early apoptotic cells at 20 uM after 24 hrs by annexin-V-FITC/propidium iodide staining based flow cytometry (reference value: 0.46 %); assay type: functional
[30] = Cytotoxicity against mouse B16F10 cells after 72 hrs by MTT assay; assay type: functional, cell-based; conditions: B16-F10, 72 h
[31] = Induction of apoptosis in mouse NIH/3T3 cells assessed as viable cells at 20 uM after 24 hrs by annexin-V-FITC/propidium iodide staining based flow cytometry (reference value: 99.06 %); assay type: cell-based, NIH3T3; conditions: read-out: Activity
[32] = Cytotoxicity against human SKOV3 cells after 72 hrs by MTT assay; assay type: functional, cell-based; conditions: SK-OV-3, 72 h
B16-F10 [33] = assay: Induction of apoptosis in mouse B16F10 cells assessed as increase in ratio of Bax/Bcl2 level at 10 uM after 36 hrs by western blot analysis (reference value: 0.2); assay type: functional
[34] = Cell cycle arrest in mouse B16F10 cells assessed as increase in cyclin B1 level at 20 uM by flow cytometric analysis; assay type: functional, cell-based; conditions: B16-F10
[35] = Cell cycle arrest in mouse B16F10 cells assessed as accumulation at G1 phase at 20 uM after 24 hrs by propidium iodide staining based flow cytometry (reference value: 38.8 %); assay type: functional; conditions: B16-F10

**Q.** What does the source list for `CCCCCCCCCCCCCCCC[N+](C)(CCCCCCCCCCCCCCCC)CCNC(=O)[C@@]1(O)CC[C@H]2[C@@H]3CCC4=CC(=O)CC[C@]4(C)[C@H]3[C@@H](O)C[C@@]21C.[Cl-]`?
**A.** Ratio [1]: 2.1; Activity (B16-F10 [2]): Active; Activity [3]: 2.08%; Activity (B16-F10 [4]): Active; Activity (B16-F10 [5]): Active; Activity (B16-F10 [6]): Active; Activity (A549 [7]): 66.05%; Activity (B16-F10 [8]): Active; Activity [9]: 0.51%; Activity (RAW264.7 [10]): 1.63%; Activity (B16-F10 [11]): Active; viability at 20 µM (MDA-MB-231): 50.7%; Activity (B16-F10 [12]): inactive; Activity (RAW264.7 [13]): 2.83%; Activity (A549 [14]): 7.53%; Activity [15]: >90%; IC50 (RAW264.7 [16]): 18.4 µM; Activity (B16-F10 [17]): Active; IC50 (MCF7): 3.7 µM; Activity (A549 [18]): Active; Activity (RAW264.7 [19]): 1.36%; viability at 20 µM (A549 [20]): 25.1%; Activity (B16-F10 [21]): Active; Activity (B16-F10 [22]): Active; viability at 24 h, 20 µM [23]: 94.2%; Activity (B16-F10 [24]): Active; Activity (B16-F10 [25]): Active; inhibition (B16-F10 [26]): Active; IC50 (A549 [27]): 2.5 µM; Activity (B16-F10 [28]): 8.52%; Activity (B16-F10 [29]): 1.67%; IC50 [30]: 6.2 µM; viability at 24 h, 20 µM [31]: 90.4%; IC50 [32]: 3.5 µM; Ratio (B16-F10 [33]): 0.4; Activity [34]: Active; Activity [35]: 33.8%
